According to patent US6841535B2, “Peptide-mediated transfection agents and methods of use” (Active Motif, priority 2000, dated 2005):

Columns and labels:
Assay type in all cases: cell-based
[1] = test system: human HS68, murine NIH 3T3 fibroblasts or cos cells; assay: Cellular localization of Pep-2; settings: standard cell culture conditions; same at 4° C. or with okadaic acid
Source text: The rationale in the design of the novel peptide vector, Pep-2, for efficient protein delivery into cells was to satisfy two major requirements: the ability to cross cell membranes and high affinity for protein sequences. To this aim, we elaborated a 21 residue peptide, designated Pep-2 ([…]-cya; SEQ ID NO:7), consisting of three domains: (1) a hydrophobic Trp-rich motif containing five Trp-residues (KETWWETWWTEW (SEQ ID NO:32)), required for efficient targeting to the cell membrane and for forming hydrophobic interactions with proteins, (2) a hydrophilic Lys-rich domain (KKKRKV (SEQ ID NO:33)) derived from the NLS of SV40 large T antigen, required to improve intracellular delivery and solubility of the peptide vector, and (3) a spacer domain (Ser-Gln-Pro), separating the two domains mentioned above, containing a Pro residue, which improves the flexibility and the integrity of both the hydrophobic and the hydrophilic domains. Peptides were acetylated at their N-terminus and synthesized with a cysteamine group at their C-terminus, so as to enable coupling of fluorescent probes (for example, FITC), useful for cellular localization of the peptide. We first investigated the ability of Pep-2 to penetrate into cells and characterized its subcellular localization. […]

[2] = test system: human fibroblastic cell line (HS-68) and Cos-7; assay: Pep-2-mediated delivery of FITC-labeled peptides into cells
Procedure: (A) Pep-2-mediated delivery of Pep-A at 37 degrees C., (B) Pep-2-mediated delivery of Pep-B at 37 degrees C., (C) Pep-2-mediated delivery of Pep-A at 4 degrees C., (D) concentration dependence of Pep-2-mediated delivery of Pep-A. The efficiency of transfection was determined by counting fluorescent cells. Experiments were performed in the presence (dark bars) or absence (open bars) of serum and at 4 degrees C. (dashed bars).
We next evaluated the ability of Pep-2 to deliver peptides and LMW and HMW proteins into a human fibroblastic cell line (HS-68) and Cos-7. FITC-labeled Pep-A (51-mer) and Pep-B (32-mer) at a concentration of 5 10^−8 M were incubated with different concentrations of Pep-2 from 5 10^−8 M (ratio 1/1) to 2 10^−6 M (ratio 40/1), in serum-free cell culture medium for 30 minutes at 37° C. Cultured cells 0.5 to 1×10^6/35 mm^2 were then overlaid with the preformed Pep-2/peptide complexes for 30 minutes in the presence or absence of FCS. Complexes were formed prior to addition of FCS to avoid interactions between Pep-2 and serum proteins. Following this transfection step, fresh DMEM supplemented with serum was added to the cells for another 30 minutes, after which cells were extensively washed, and examined by fluorescence microscopy. […] Finally, we evaluated the effect of serum in the cell culture medium on the efficiency of peptide transfection.

[3] = test system: human fibroblastic cell line (HS-68) and Cos-7; assay: Pep-2-mediated delivery of GFP and β-Gal proteins into cells
Procedure: The efficiency of transfection was determined by counting fluorescent cells or blue stained cells. (A) Control of beta gal in the absence of Pep-2, (B) Pep-2 delivery of beta gal at 37 degrees C., (C) Pep-2 delivery of beta gal at 4 degrees C., (D) Pep-2 delivery of GFP at 37 degrees C. (E) concentration dependent Pep-2 delivery of GFP. Experiments were performed in the absence (open bars) or presence (dark bars) of serum.
We next evaluated the ability of Pep-2 to deliver peptides and LMW and HMW proteins into a human fibroblastic cell line (HS-68) and Cos-7. FITC-labeled Pep-A (51-mer) and Pep-B (32-mer) at a concentration of 5 10^−8 M were incubated with different concentrations of Pep-2 from 5 10^−8 M (ratio 1/1) to 2 10^−6 M (ratio 40/1), in serum-free cell culture medium for 30 minutes at 37° C. Cultured cells 0.5 to 1×10^6/35 mm^2 were then overlaid with the preformed Pep-2/peptide complexes for 30 minutes in the presence or absence of FCS. Complexes were formed prior to addition of FCS to avoid interactions between Pep-2 and serum proteins. Following this transfection step, fresh DMEM supplemented with serum was added to the cells for another 30 minutes, after which cells were extensively washed, and examined by fluorescence microscopy. […] Conversely, we observed a large decrease in the efficiency of transfection at a ratio greater than 30/1, which may be explained by either precipitation or aggregation of Pep-2/peptide complexes to the cell membrane. […] Finally, we evaluated the effect of serum in the cell culture medium on the efficiency of peptide transfection.
To investigate protein delivery we chose to monitor cell delivery of three very different types of proteins: 30 kDa GFP, 119 kDa β-Gal, and specific antibodies. […] Cells were then extensively washed prior to observation and the efficiency of protein delivery was determined by counting fluorescent cells or by monitoring enzymatic β-galactosidase activity by X-Gal staining. […]

[4] = test system: HS-68 and NIH 3T3 cell lines; assay: Drug delivery by vector peptides (ANS and Bis-ANS); settings: transfection of ANS and Bis-ANS; incubated with peptide at a molar ratio of 1:20; 1 h
Procedure: For investigation of drug delivery, we used the naphthalene derivatives ANS and Bis-ANS, which have intrinsic fluorescence. The drugs was incubated with peptide at a molar ratio of 1:20, followed by overlay of the complex onto cultured cells. This was followed by incubation for 1 h. Then cells were extensively washed and observed by microscopy.
(§1) The results of the experiments testing the transfection properties of the peptides are presented as a table in which the sequences are aligned for optimal comparison: […]

[5] = test system: HS-68 and NIH 3T3 cell lines; assay: Protein delivery by vector peptides (GFP); settings: transfection of GFP; incubated with peptide at a molar ratio of 1:20; 1 h
Procedure: (§2) We evaluated the ability of peptides designed according to principles described herein, as well as variants thereof, to deliver peptides and proteins into HS-68 and NIH 3T3 cell lines. Peptide delivery was performed with a 32 mer peptide (peptide B), and in some cases a […] peptide (peptide A). The peptides were fluorescently labeled. Peptides (5.0×10^−8M or 5.0×10^−7M) were incubated with one micromolar vector peptide in cell culture medium in the absence of serum for 30 min. Cultured cells (0.5 to 1.0×10^6) were then overlaid with the preformed peptide/vector peptide complexes in 500 μL DMEM for one hour in the presence or absence of FCS. Complexes were formed prior to addition of FCS to avoid interactions between ep-vector and serum proteins. Following this transfection step, fresh DMEM supplemented with serum was added for another hour. Then cells were extensively washed, fixed and analyzed by fluorescence microscopy.
To investigate protein delivery we tested the delivery into cells of the fluorescent protein GFP. The protein was incubated with peptide at a molar ratio of 1:20, followed by overlay of the complex onto cultured cells. This was followed by incubation for 1 h. Then cells were extensively washed and fixed with formalin before observation.
as §1

[6] = test system: HS-68 and NIH 3T3 cell lines; assay: Peptide delivery by vector peptides (fluorescently labeled peptide B / peptide A); settings: transfection of fluorescently labeled peptide; one micromolar vector peptide; 1 h
Procedure: as §2, §1

Jurkat T and WI 38 cells = assay: Pep-2 delivery of p27(kip1), cell cycle arrest in G1 (FACS, BrDu); settings: Pep-2 alone
Procedure: The number of cells in the G1 phase was determined by BrDU incorporation.
The number of cells in the G1 phase was determined by FACs analysis.
p27(kip1) was expressed in E coli, and purified as a his-tagged protein. Pep-2/p27kip1 complexes were formed in PBS (500 μl of DMEM containing 50 nM of protein and 0.1 μM of Pep-2) and incubated for 30 min at 37° C. Jurkat T and WI 38 cells grown to 75% confluency were then overlaid with these preformed complexes. After 1 hr incubation at 37° C., fresh DMEM supplemented with 10% foetal calf serum was added to the cells, without removing the overlay of Pep-2/p27^Kip1, and cells were returned to the incubator for another 30 h. Experiments were performed on both non-synchronized and synchronized cells. The number of cells arrested in G1 was determined both by FACS analysis and BrDu incorporation.

KETWWETWWTEWSQPKKKRKV [Pep-2]
subcellular localization [1]: nucleus
effect of serum (FCS 10%) on efficiency of peptide delivery [2]: not affected
cells with internalized fluorescent peptide localized to the nucleus ([2]; Pep-2/Pep-A molar ratio of 20/1): more than 90%
effect of 10% FCS on efficiency of protein delivery [3]: not affected
cells containing fluorescent GFP staining in their cytoplasm ([3]; 37 degrees C.): more than 80%
cells exhibiting strong and uniform β-Gal activity ([3]; X-Gal staining): All cells
Drug [4]: 5%
Pro [5]: 5%
Pep [6]: 5%
effect on cell cycle progression (Jurkat T and WI 38 cells): no effect on cell cycle progression
